# From patent US12077503B2, “Substituted cyclic amides and their use as herbicides” (FMC CORPORATION, priority 2015, dated 2024)
# Columns and labels:
# Format in all cases: in vivo
# [1] = system: sedge, umbrella (small-flower umbrella sedge, Cyperus difformis); test: Test C flooded paddy test; settings: Flood; for Plant response rating (scale of 0 to 100), Sedge, Umbrella: 0 is no effect, 100 is complete control
# Method in brief: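 Scores express visual response relative to untreated controls, 0 meaning no effect and 100 complete control, assessed 13 to 15 d after treatment in the greenhouse. Compound went into water flooded 3 cm above soil around 2-leaf plants.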
# [2] = system: ryegrass, Italian (Italian ryegrass, Lolium multiflorum); test: Test C postemergence; settings: scale 0 to 100, 0 no effect, 100 complete control
# Method in brief: (§1)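 Scores of 0 to 100 reflect visual comparison with control plants, where 0 means no effect and 100 complete control, made 13 to 15 d after treatment. Application was preemergence to seeds in loam-sand soil or postemergence to plants 2 to 18 cm tall in peat-based mix, using a surfactant-containing solvent formulation.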
# [3] = system: Galium (catchweed bedstraw, Galium aparine); test: Test C postemergence; settings: scale 0 to 100, 0 no effect, 100 complete control
# Method in brief: as §1
# corn (Zea mays) = test: Test C postemergence; settings: scale 0 to 100, 0 no effect, 100 complete control
# Method in brief: as §1
# [4] = system: chickweed (common chickweed, Stellaria media); test: Test C postemergence; settings: scale 0 to 100, 0 no effect, 100 complete control
# Method in brief: as §1
# [5] = system: velvetleaf (Abutilon theophrasti); test: Test C postemergence; settings: scale 0 to 100, 0 no effect, 100 complete control
# Method in brief: as §1
# [6] = system: blackgrass (Alopecurus myosuroides); test: Test C postemergence; settings: scale 0 to 100, 0 no effect, 100 complete control
# Method in brief: as §1
# [7] = system: waterhemp (common waterhemp, Amaranthus rudis); test: Test C postemergence; settings: scale 0 to 100, 0 no effect, 100 complete control
# Method in brief: as §1
# [8] = system: ragweed (common ragweed, Ambrosia elatior); test: Test C postemergence; settings: scale 0 to 100, 0 no effect, 100 complete control
# Method in brief: as §1
# soybean (Glycine max) = test: Test C postemergence; settings: scale 0 to 100, 0 no effect, 100 complete control
# Method in brief: as §1
# [9] = system: wheat (winter wheat, Triticum aestivum); test: Test C postemergence; settings: scale 0 to 100, 0 no effect, 100 complete control
# Method in brief: as §1
# [10] = system: johnsongrass (Sorghum halepense); test: Test C postemergence; settings: scale 0 to 100, 0 no effect, 100 complete control
# Method in brief: as §1
# [11] = system: foxtail, giant (giant foxtail, Setaria faberii); test: Test C postemergence; settings: scale 0 to 100, 0 no effect, 100 complete control
# Method in brief: as §1
# [12] = system: pigweed (Amaranthus retroflexus); test: Test C postemergence; settings: scale 0 to 100, 0 no effect, 100 complete control
# Method in brief: as §1
# [13] = system: oat, wild (wild oat, Avena fatua); test: Test C postemergence; settings: scale 0 to 100, 0 no effect, 100 complete control
# Method in brief: as §1
# Kochia (Kochia scoparia) = test: Test C postemergence; settings: scale 0 to 100, 0 no effect, 100 complete control
# Method in brief: as §1
# [14] = system: barnyardgrass (Echinochloa crus-galli); test: Test C postemergence; settings: scale 0 to 100, 0 no effect, 100 complete control
# Method in brief: as §1
# [15] = system: crabgrass, large (large crabgrass, Digitaria sanguinalis); test: Test C postemergence; settings: scale 0 to 100, 0 no effect, 100 complete control
# Method in brief: as §1
# [16] = system: lambsquarters (Chenopodium album); test: Test C postemergence; settings: scale 0 to 100, 0 no effect, 100 complete control
# Method in brief: as §1
compound,measurement,setting,value
O=C1NCC(c2cccc(OC(F)(F)C(F)F)c2)C1C(=O)Nc1cccc(F)c1F (racemic) [Compound 697],"Plant response rating, Sedge, Umbrella","[1]; 31 g ai/ha, scale 0 to 100 (0 no effect, 100 complete control), 13 to 15 d",0
same,"Plant response rating (scale of 0 to 100), Sedge, Umbrella",[1]; 62 g ai/ha,0
same,"Plant response rating (scale of 0 to 100), Sedge, Umbrella",[1]; 125 g ai/ha,0
same,"Plant response rating (scale of 0 to 100), Sedge, Umbrella",[1]; 250 g ai/ha,0
CN1CC(c2ccc(F)c(F)c2)C(C(=O)Nc2ccccc2C(F)(F)F)C1=O (stereo not drawn) [Compound 641],"Plant response rating, Ryegrass, Italian",[2]; 31 g ai/ha,0
same,"Plant response rating, Ryegrass, Italian",[2]; 62 g ai/ha,0
same,"Plant response rating, Ryegrass, Italian",[2]; 125 g ai/ha,10
same,"Plant response rating, Ryegrass, Italian",[2]; 250 g ai/ha,10
same,"Plant response rating, Galium",[3]; 31 g ai/ha,40
same,"Plant response rating, Galium",[3]; 62 g ai/ha,60
same,"Plant response rating, Galium",[3]; 125 g ai/ha,60
same,"Plant response rating, Galium",[3]; 250 g ai/ha,65
same,"Plant response rating, Corn",corn (Zea mays); 31 g ai/ha,0
same,"Plant response rating, Corn",corn (Zea mays); 62 g ai/ha,0
same,"Plant response rating, Corn",corn (Zea mays); 125 g ai/ha,0
same,"Plant response rating, Corn",corn (Zea mays); 250 g ai/ha,10
same,"Plant response rating, Chickweed",[4]; 31 g ai/ha,0
same,"Plant response rating, Chickweed",[4]; 62 g ai/ha,0
same,"Plant response rating, Chickweed",[4]; 125 g ai/ha,50
same,"Plant response rating, Chickweed",[4]; 250 g ai/ha,55
same,"Plant response rating, Velvetleaf",[5]; 31 g ai/ha,40
same,"Plant response rating, Velvetleaf",[5]; 62 g ai/ha,40
same,"Plant response rating, Velvetleaf",[5]; 250 g ai/ha,50
same,"Plant response rating, Blackgrass",[6]; 31 g ai/ha,0
same,"Plant response rating, Blackgrass",[6]; 62 g ai/ha,0
same,"Plant response rating, Blackgrass",[6]; 125 g ai/ha,0
same,"Plant response rating, Blackgrass",[6]; 250 g ai/ha,0
same,"Plant response rating, Waterhemp",[7]; 31 g ai/ha,10
same,"Plant response rating, Waterhemp",[7]; 62 g ai/ha,10
same,"Plant response rating, Waterhemp",[7]; 125 g ai/ha,25
same,"Plant response rating, Waterhemp",[7]; 250 g ai/ha,30
same,"Plant response rating, Ragweed",[8]; 31 g ai/ha,0
same,"Plant response rating, Ragweed",[8]; 62 g ai/ha,0
same,"Plant response rating, Ragweed",[8]; 125 g ai/ha,40
same,"Plant response rating, Ragweed",[8]; 250 g ai/ha,30
same,"Plant response rating, Soybean",soybean (Glycine max); 31 g ai/ha,0
same,"Plant response rating, Soybean",soybean (Glycine max); 62 g ai/ha,0
same,"Plant response rating, Soybean",soybean (Glycine max); 125 g ai/ha,5
same,"Plant response rating, Soybean",soybean (Glycine max); 250 g ai/ha,15
same,"Plant response rating, Wheat",[9]; 31 g ai/ha,0
same,"Plant response rating, Wheat",[9]; 62 g ai/ha,0
same,"Plant response rating, Wheat",[9]; 125 g ai/ha,0
same,"Plant response rating, Wheat",[9]; 250 g ai/ha,0
same,"Plant response rating, Johnsongrass",[10]; 31 g ai/ha,0
same,"Plant response rating, Johnsongrass",[10]; 62 g ai/ha,0
same,"Plant response rating, Johnsongrass",[10]; 125 g ai/ha,0
same,"Plant response rating, Johnsongrass",[10]; 250 g ai/ha,0
same,"Plant response rating, Foxtail, Giant",[11]; 31 g ai/ha,0
same,"Plant response rating, Foxtail, Giant",[11]; 62 g ai/ha,10
same,"Plant response rating, Foxtail, Giant",[11]; 125 g ai/ha,65
same,"Plant response rating, Foxtail, Giant",[11]; 250 g ai/ha,80
same,"Plant response rating, Pigweed",[12]; 31 g ai/ha,0
same,"Plant response rating, Pigweed",[12]; 62 g ai/ha,0
same,"Plant response rating, Pigweed",[12]; 125 g ai/ha,25
same,"Plant response rating, Pigweed",[12]; 250 g ai/ha,50
same,"Plant response rating, Oat, Wild",[13]; 31 g ai/ha,0
same,"Plant response rating, Oat, Wild",[13]; 62 g ai/ha,0
same,"Plant response rating, Oat, Wild",[13]; 125 g ai/ha,0
same,"Plant response rating, Oat, Wild",[13]; 250 g ai/ha,0
same,"Plant response rating, Kochia",Kochia (Kochia scoparia); 31 g ai/ha,0
same,"Plant response rating, Kochia",Kochia (Kochia scoparia); 62 g ai/ha,0
same,"Plant response rating, Kochia",Kochia (Kochia scoparia); 125 g ai/ha,0
same,"Plant response rating, Kochia",Kochia (Kochia scoparia); 250 g ai/ha,40
same,"Plant response rating, Barnyardgrass",[14]; 31 g ai/ha,0
same,"Plant response rating, Barnyardgrass",[14]; 62 g ai/ha,10
same,"Plant response rating, Barnyardgrass",[14]; 125 g ai/ha,35
same,"Plant response rating, Barnyardgrass",[14]; 250 g ai/ha,65
same,"Plant response rating, Crabgrass, Large",[15]; 31 g ai/ha,10
same,"Plant response rating, Crabgrass, Large",[15]; 62 g ai/ha,50
same,"Plant response rating, Crabgrass, Large",[15]; 125 g ai/ha,70
same,"Plant response rating, Crabgrass, Large",[15]; 250 g ai/ha,70
same,"Plant response rating, Lambsquarters",[16]; 31 g ai/ha,5
same,"Plant response rating, Lambsquarters",[16]; 62 g ai/ha,15
same,"Plant response rating, Lambsquarters",[16]; 125 g ai/ha,5
same,"Plant response rating, Lambsquarters",[16]; 250 g ai/ha,30
